The test system of one test is RAW 264.7 macrophages. Briefly: LPS effects on macrophages in vitro, NO production (Griess reaction). The test is classed as cell-based, mouse. The settings on record: for effect on NO production of LPS-stimulated macrophages: RAW 264.7, LPS. On the technique in general: Nitrite, measured by Griess reagent, commonly stands in for NO production.
For the next test, the system named is RAW 264.7 cells. The experiment in a line: Cytokine release from LPS-stimulated RAW 264.7 cells. The settings on record: 10 ng/ml E. coli LPS. The test is classed as cell-based, mouse. Here is the method: RAW 264.7 cells were stimulated with 10 ng/ml E. coli LPS and cytokines were analysed in the cell supernatants.
(§1) The cytokines IL-6, IL-10, MCP-1, INF-γ, and TNF-α were measured in cell culture supernatants from RAW264.7 cells and plasma from mice injected with LPS or P. aeruginosa (with or without peptide treatment) using the Cytometric bead array; Mouse Inflammation Kit (Becton Dickinson AB) according to the manufacturer's instructions. All plasma samples were stored at −20° C. before the analysis.

Test [1] relates to human peripheral blood monocytes. The experiment in a line: TNF-α assay in human peripheral blood monocytes. The test is classed as cell-based. The settings on record: 10 ng/ml E. coli LPS. Here is the method:
Cell supernatants were collected and stored at −20° C. […] Plasma was obtained by centrifuging at 400 g, 10 min and stored at −20° C. The TNF-α level was measured using a human TNF-Elisa Kit (Invitrogen).

A further test deals with human citrate plasma. Briefly: Clotting assays in plasma (aPTT, PT, TCT). The test is classed as biochemical. To be noted: 20 μM peptide. Here is the method: (§2) All clotting times were analyzed using a coagulometer (Amelung, Lemgo, Germany). […] (PT-thromboplastin reagent (Trinity Biotech), TCT: Thrombin reagent (Technoclone)). To record the activated partial thromboplastin time (aPTT), 100 μl of a kaolin-containing solution (Technoclone) was add to the plasma-peptide mix and incubated for 200 sec before clot formation was initiated by adding 100 μl of 30 mM fresh CaCl2 solution. […] Cells were washed and resuspended in 100 μl PBS. Hundred microliter of fresh human citrate plasma were reconstituted with 100 μl of fresh 30 mM CaCl2 solution and pre-warmed for 60 sec. The clot formation was started by adding the hPBMNC. The same procedure was used to determine clotting times for whole blood.

A further test deals with human monocytes. The experiment in a line: Clotting time, LPS-stimulated human monocytes added to citrate plasma. The test is classed as cell-based. The settings on record: concentrations similar to physiological thrombin (1.5 μM). Here is the method:
Whole blood was incubated with 10 ng/ml E. coli LPS+/−the indicated concentrations of peptide. The clotting reaction in human citrated plasma was initiated by adding the blood cells. […] Human monocytes were stimulated with LPS and/or peptides, and the clotting times were determined by adding the treated cells to human citrate plasma supplemented with CaCl2
as §2

A further test concerns LPS-induced shock. The experiment in a line: LPS model in vivo, E. coli LPS (Example B). The arrangement: species or system C57BL/6 mice. The method, then: Male C57BL/6 mice (8 weeks, 21+/−5 g), were injected intraperitoneally with 18 mg E. coli 0111:B4 LPS or 36 mg P. aeruginosa LPS (Sigma) per kg of body weight. […] Survival and status was followed during seven days. For SEM and histochemistry, mice were sacrificed 20 h after LPS challenge, and lungs, liver, kidney, and spleen were removed and fixed. For determination of cytokine levels in mouse plasma, animals were sacrificed 8 h and 20 h after LPS injection. The blood was collected immediately by cardiac puncture. These experiments were approved by the Laboratory Animal Ethics Committee of Malmö/Lund.
Mouse blood (anti-coagulated with EDTA) was taken by cardiac puncture and analysed with the VetScan HM5 System (TRIOLAB). The number of white blood cells, percentages of lymphocytes, neutrophils, monocytes and platelets were determined.
as §1
For scanning electron microscopy lungs were taken 20 h after LPS injection. […] Specimens were washed with cacodylate buffer, and dehydrated with an ascending ethanol series from 50% (vv) to absolute ethanol. The specimens were then subjected to critical-point drying in carbon dioxide, with absolute ethanol as intermediate solvent, mounted, on aluminium holders, sputtered with 30 nm palladium/gold and examined in a JEOL JSM-350 scanning electron microscope

In another test the test system is E. coli. Briefly: Radial diffusion assay (RDA). It counts as cell-based. The method, then:
Essentially as described earlier, bacteria were grown to mid-logarithmic phase in […] of full-strength (3% w/v) trypticase soy broth (TSB) (Becton-Dickinson). The microorganisms were then washed once with 10 mM Tris, pH 7.4. Subsequently, 4×10^8 cfu were added to 15 ml of the underlay agarose gel, consisting of 0.03% (w/v) TSB, 1% (w/v) low electroendosmosis type (EEO) agarose (Sigma-Aldrich) and 0.02% (v/v) Tween 20 (Sigma-Aldrich). The underlay was poured into a Ø 144 mm petri dish. After agarose solidification, 4 mm-diameter wells were punched and 6 μl peptide solution of required concentration added to each well. Plates were incubated at 37° C. for 3 h to allow peptide diffusion. The underlay gel was then covered with 15 ml of molten overlay (6% TSB and 1% Low-EEO agarose in distilled H2O). Antimicrobial activity of a peptide was visualized as a zone of clearing around each well after 18-24 h of incubation at 37° C.
Essentially as described earlier bacteria were grown to mid-logarithmic phase in 10 ml of full-strength (3% w/v) trypticase soy broth (TSB) (Becton-Dickinson, Cockeysville, Md.). The microorganisms were then washed once with 10 mM Tris, pH 7.4. […]

The next test deals with E. coli ATCC 25922. The experiment in a line: Viable count assay. To be noted: E. coli ATCC 25922, proteins and peptides at 3 and 6 μM. It counts as cell-based.

Method for E. coli ATCC 25922: E. coli bacteria were grown to mid-logarithmic phase in Todd-Hewitt (TH) medium. They were then washed and diluted in 10 mM Tris, pH 7.4 containing 5 mM glucose. […] To quantify the bactericidal activity, serial dilutions of the incubation mixtures were plated on TH agar, followed by incubation at 37° C. overnight and the number of colony-forming units was determined. 100% survival was defined as total survival of bacteria in the same buffer and under the same condition in the absence of peptide.
E. coli ATCC 25922 bacteria were grown to mid-logarithmic phase in Todd-Hewitt (TH) medium. Bacteria were washed and re-suspended in 10 mM Tris, pH 7.4 containing 5 mM glucose. […] Serial dilutions of the incubation mixtures were plated on TH agar, followed by incubation at 37° C. overnight and cfu determination.
E. coli ATCC 25922 bacteria were grown to mid-logarithmic phase in Todd-Hewitt (TH) medium (Becton and Dickinson, Maryland, USA). The microorganisms were then washed and diluted in 10 mM Tris, pH 7.4 containing 5 mM glucose. […] To quantify the bactericidal activity, serial dilutions of the incubation mixtures were plated on TH agar, followed by incubation at 37° C. overnight and the number of colony-forming units was determined. […] Significance was determined using the statistical software SigmaStat (SPSS Inc., Chicago, Ill., USA).
Method for RAW 264.7 macrophages: 3.5×10^5 cells were seeded in 96-well tissue culture plates (Nunc, 167008) in phenol red-free DMEM (Gibco) supplemented with 10% FBS and antibiotics. Following 6 hours of incubation to permit adherence, cells were stimulated with 100 or 10 ng/mL E. coli (0111:B4) or P. aeruginosa LPS (Sigma), with and without peptide of various doses. The levels of NO in culture supernatants were determined after 24 hours from stimulation using the Griess reaction [38]. Briefly, nitrite, a stable product of NO degradation, was measured by mixing 50 μl of culture supernatants with the same volume of Griess reagent (Sigma, G4410) and reading absorbance at 550 nm after 15 min. Phenol-red free DMEM with FBS and antibiotics were used as a blank. A standard curve was prepared using 0-80 μM sodium nitrite solutions in ddH2O.
3.5×10^5 RAW 264.7 cells were seeded in 96-well tissue culture plates (Nunc no. 167008) in phenol red-free DMEM (Gibco) supplemented with 10% FBS containing 1% Anti-Anti (Invitrogen). […] The level of NO in culture supernatants was determined after a period of 20 hours using the Griess reaction (27)ref. Briefly, Nitrite, a stable product of NO degradation, was measured by mixing 50 μl of culture supernatants with the same volume of Griess reagent (Sigma, G4410), and reading absorbance at 550 nm after 15 min. Phenol-red free DMEM with FBS and antibiotics were used as a blank. A standard curve was prepared using sodium nitrite at 0-80 μM in ddH2O.
3.5×10^5 cells were seeded in 96-well tissue culture plates (Nunc, 167008) in phenol red-free DMEM (Gibco) supplemented with 10% FBS and antibiotics. […] The levels of NO in culture supernatants were determined after 24 hours from stimulation using the Griess reaction [25]. Briefly, nitrite, a stable product of NO degradation, was measured by mixing 50 μl of culture supernatants with the same volume of Griess reagent (Sigma, G4410) and reading absorbance at 550 nm after 15 min. […]

As to “HVFRLKKWIQKVIDQFGE (HVF18) [endogenously produced C-terminal thrombin peptide]”, the “concentration completely eliminating LPS-induced NO-responses” value in the test on RAW 264.7 macrophages (RAW 264.7, 10 ng/ml LPS) was “much higher doses”. In the test with RAW 264.7 cells, the “effect on IL-10” value is “significant up-regulation of IL-10”. In addition, in the test on RAW 264.7 cells (peptide 10 μM), the “effect on cytokines at 10 μM” value is on record as “not”. Also, the TNF-α production result in test [1] was “damped TNF-α production”. In the test with human citrate plasma, the “activated partial thromboplastin time (aPTT)” value is listed as “significantly prolong”, the “prothrombin time (PT)” value is given as “not significantly affected” and the “thrombin clotting time (TCT)” value is “not significantly affected”. For the same substance, the “clotting time with LPS-stimulated monocytes (TF-mediated coagulation)” value with human monocytes is reported as “less potent”. Moreover, in the test with LPS-induced shock (0.5 mg peptide, followed 7 days), the weight entry is “full recovery of weight”. Besides, in the test on LPS-induced shock (18 mg/kg E. coli LPS i.p., 0.5 mg peptide 30 minutes later), the “survival in LPS-induced shock” value is on record as 100%. Moreover, in the test on LPS-induced shock (8 and 20 h after LPS injection, 0.5 mg peptide), the “proinflammatory IL-6, IFN-γ, TNF-α, MCP-1 in blood” value is recorded as “significant reductions”. Moreover, the platelet counts entry in the test with LPS-induced shock (8 and 20 h after LPS, 0.5 mg peptide) was “significantly increased platelets”. In addition, in the test on LPS-induced shock (8 h after LPS injection), the IL-10 in blood result is recorded as “increase in IL-10”.
With “VFRLKKWIQKVI (12-mer thrombin-derived peptide) [VFR12]”, the “bactericidal potency in RDA at high salt” value in the test with E. coli (E. coli ATCC 25922, 0.15M NaCl, peptide at 100 μM) is recorded as “retained good bactericidal potency”. Moreover, the “effect on NO production of LPS-stimulated macrophages” value with RAW 264.7 macrophages is reported as “not able to block LPS effects”.
As for VFRLKKWIQKVIDQFGE (VFR17), the “antibacterial activity in viable count assay” value with E. coli ATCC 25922 is “significant antibacterial activities”.
For the substance “WFFFYYLIIGGGVVTHQQRKKKKDE (WFF25 peptide) [control peptide, same composition as GKY25, amino acids sorted after hydrophobicity, reference compound]”, the “effect on NO production of LPS-stimulated macrophages” value with RAW 264.7 macrophages is “did not show anti-inflammatory effects”. For the same substance, the “survival in LPS-induced shock” value with LPS-induced shock (500 μg i.p., followed 7 days) is reported as “does not increase survival”.
With thrombin, the “antimicrobial activity of intact protein in RDA” value in the test on E. coli (E. coli, low-salt conditions, not digested with neutrophil elastase) is “inactive”.

Values taken from patent publication US8735353B2, “Polypeptides and uses thereof” (priority 2009, dated 2014).
